Reference: patent publication US8592460B2, “Amino-pyridine derivatives as S1P1 /EDG1 receptor agonists” (Actelion Pharmaceuticals Ltd., priority 2007, dated 2013)
pEC50: −log10 of the molar value.

Tested on: circulating lymphocytes
Assay: Assessment of in vivo efficacy: circulating lymphocytes after oral administration
Set-up: species or system rat
Conditions: 6 h after oral administration of 10 mg/kg to normotensive male Wistar rats, compared to vehicle-treated group; mean ± SEM
Experimental: The efficacy of the compounds of formula (I) is assessed by measuring the circulating lymphocytes after oral administration of 3 to 30 mg/kg of a compound of formula (I) to normotensive male Wistar rats. The animals are housed in climate-controlled conditions with a 12 h-light/dark cycle, and have free access to normal rat chow and drinking water. Blood is collected before and 3, 6 and 24 h after drug administration. Full blood is subjected to hematology using Advia Hematology system (Bayer Diagnostics, Zurich, Switzerland).
All data are presented as mean±SEM. Statistical analyses are performed by analysis of variance (ANOVA) using Statistica (StatSoft) and the Student-Newman-Keuls procedure for multiple comparisons. The null hypothesis is rejected when p<0.05.
Lymphocyte counts 6 h after oral administration have been measured for 39 of the 258 exemplified compounds and are in the range of −82% to −48% with an average of −65%.

| SMILES | Lymphocyte counts |
| --- | --- |
| CCN(CC)c1cc(-c2nc(-c3cc(C)c(OC[C@@H](O)CO)c(C)c3)no2)cc(C)n1 [Example 11, (S)-3-{4-[5-(2-diethylamino-6-methyl-pyridin-4-yl)-[1,2,4]oxadiazol-3-yl]-2,6-dimethyl-phenoxy}-propane-1,2-diol] | −70 ± 2% |
| CCc1cc(-c2noc(-c3cc(C)nc(NC(C)C)c3)n2)cc(C)c1OC[C@@H](O)CO [Example 199, (S)-3-{2-ethyl-4-[5-(2-isopropylamino-6-methyl-pyridin-4-yl)-[1,2,4]oxadiazol-3-yl]-6-methyl-phenoxy}-propane-1,2-diol] | −72 ± 3% |

Target: recombinant human S1P1 receptor (Homo sapiens, UniProt P21453)
Assay: GTPγS assay to determine EC50 values
Format: biochemical
Conditions: agonistic activity; 35S-GTPγS binding, membrane preparations of CHO cells expressing recombinant human S1P1 receptor
Experimental: GTPγS binding assays are performed in 96 well microtiter plates (Nunc, 442587) in a final volume of 200 μl, using membrane preparations of CHO cells expressing recombinant human S1P1 receptor. Assay conditions are 20 mM Hepes (Fluka, 54461), 100 mM NaCl (Fluka, 71378), 5 mM MgCl2(Fluka, 63064), 0.1% BSA (Calbiochem, 126609), 1 μM GDP (Sigma, G-7127), 2.5% DMSO (Fluka, 41644), […] ^35S-GTPγS (Amersham Biosciences, SJ1320). The pH is 7.4. Test compounds are dissolved and diluted in 100% DMSO and pre-incubated at room temperature for 30 min in 150 μl of the above assay buffer, in the absence of ^35S-GTPγS. After addition of 50 μl of ^35S-GTPγS, the assay is incubated for 1 h at rt. The assay is terminated by transfer of the reaction mixture to a Multiscreen plate (Millipore, MAHFC1H60) using a cell harvester from Packard Biosciences, and the plates are washed with ice-cold 10 mM Na2HPO4/NaH2PO4 (70%/30%), dried, sealed at the bottom and, after addition of 25 μl MicroScint20 (Packard Biosciences, order#6013621), sealed on the top. Membrane-bound ^35S-GTPγS is measured with a TopCount from Packard Biosciences.
EC50 is the concentration of agonist inducing 50% of the maximal specific ^35S-GTPγS binding. Specific binding is determined by subtracting non-specific binding from maximal binding. Maximal binding is the amount of cpm bound to the Multiscreen plate in the presence of 10 μM of S1P. Non-specific binding is the amount of binding in the absence of an agonist in the assay.

Sequence of recombinant human S1P1 receptor (P21453 whole entry): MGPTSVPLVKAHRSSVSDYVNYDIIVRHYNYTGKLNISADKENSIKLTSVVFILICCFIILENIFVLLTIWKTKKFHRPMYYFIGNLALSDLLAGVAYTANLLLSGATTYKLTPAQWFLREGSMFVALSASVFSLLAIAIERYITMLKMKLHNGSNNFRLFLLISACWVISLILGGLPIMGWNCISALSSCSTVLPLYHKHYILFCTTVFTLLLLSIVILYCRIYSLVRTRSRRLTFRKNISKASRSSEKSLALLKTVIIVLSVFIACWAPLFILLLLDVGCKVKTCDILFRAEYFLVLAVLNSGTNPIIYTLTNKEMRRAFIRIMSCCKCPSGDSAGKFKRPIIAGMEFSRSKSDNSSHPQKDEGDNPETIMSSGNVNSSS

| pEC50 | SMILES |
| --- | --- |
| 9.30 | CCc1cc(-c2noc(-c3cc(C)nc(NC(C)C)c3)n2)cc(C)c1OC[C@@H](O)CNC(=O)CO [Example 203, N—((S)-3-{2-ethyl-4-[5-(2-isopropylamino-6-methyl-pyridin-4-yl)-[1,2,4]oxadiazol-3-yl]-6-methyl-phenoxy}-2-hydroxy-propyl)-2-hydroxy-acetamide] |
| 10.00 | CCc1cc(-c2noc(-c3cc(C)nc(N(C)C(C)C)c3)n2)cc(C)c1OC[C@@H](O)CNC(=O)CO [Example 130, N—[(S)-3-(2-ethyl-4-{5-[2-(isopropyl-methyl-amino)-6-methyl-pyridin-4-yl]-[1,2,4]oxadiazol-3-yl}-6-methyl-phenoxy)-2-hydroxy-propyl]-2-hydroxy-acetamide] |
| 8.44 | Cc1cc(-c2nc(-c3cc(C)c(O)c(C)c3)no2)cc(N(C)C(C)C)n1 [Example 21, 4-{5-[2-(Isopropyl-methyl-amino)-6-methyl-pyridin-4-yl]-[1,2,4]oxadiazol-3-yl}-2,6-dimethyl-phenol] |
| 8.39 | CCc1cc(-c2noc(-c3cc(C)nc(N(C)CC(C)C)c3)n2)cc(C)c1OC[C@@H](O)CNC(=O)CO [Example 232, N—[(S)-3-(2-ethyl-4-{5-[2-(isobutyl-methyl-amino)-6-methyl-pyridin-4-yl]-[1,2,4]oxadiazol-3-yl}-6-methyl-phenoxy)-2-hydroxy-propyl]-2-hydroxy-acetamide] |
| 8.21 | CCc1cc(-c2noc(-c3cc(C)nc(N(CC)CC)c3)n2)cc(C)c1OCCN1CCC(C(=O)O)C1 (racemic) [Example 66, rac-1-(2-{4-[5-(2-Diethylamino-6-methyl-pyridin-4-yl)-[1,2,4]oxadiazol-3-yl]-2-ethyl-6-methyl-phenoxy}-ethyl)-pyrrolidine-3-carboxylic acid] |
| 8.92 | CCc1cc(-c2noc(-c3cc(C)nc(N(CC)CC)c3)n2)cc(C)c1OCC(O)CO (racemic) [Example 15, rac-3-{4-[5-(2-Diethylamino-6-methyl-pyridin-4-yl)-[1,2,4]oxadiazol-3-yl]-2-ethyl-6-methyl-phenoxy}-propane-1,2-diol] |
| 8.47 | CCc1cc(-c2nnc(-c3cc(C)nc(N(CC)CC)c3)o2)cc(C)c1OC[C@@H](O)CNC(=O)CO [Example 87, N—((S)-3-{4-[5-(2-diethylamino-6-methyl-pyridin-4-yl)-[1,3,4]oxadiazol-2-yl]-2-ethyl-6-methyl-phenoxy}-2-hydroxy-propyl)-2-hydroxy-acetamide] |
| 8.70 | CCN(CC)c1cc(-c2nc(-c3cc(Cl)c(OC[C@H](O)CNC(=O)CO)c(OC)c3)no2)cc(C)n1 [Example 116, N—((R)-3-{2-chloro-4-[5-(2-diethylamino-6-methyl-pyridin-4-yl)-[1,2,4]oxadiazol-3-yl]-6-methoxy-phenoxy}-2-hydroxy-propyl)-2-hydroxy-acetamide] |
| 9.70 | CCc1cc(-c2nc(-c3cc(C)c(OC[C@@H](O)CNC(=O)CO)c(CC)c3)no2)cc(N(C)C)n1 [Example 192, N—((S)-3-{4-[5-(2-dimethylamino-6-ethyl-pyridin-4-yl)-[1,2,4]oxadiazol-3-yl]-2-ethyl-6-methyl-phenoxy}-2-hydroxy-propyl)-2-hydroxy-acetamide] |
| 8.29 | COc1cc(OC[C@H](O)CNC(=O)CO)ccc1-c1noc(-c2cc(C)nc(N(C)C(C)C)c2)n1 [Example 159, 2-hydroxy-N—[(R)-2-hydroxy-3-(4-{5-[2-(isopropyl-methyl-amino)-6-methyl-pyridin-4-yl]-[1,2,4]oxadiazol-3-yl}-3-methoxy-phenoxy)-propyl]-acetamide] |
| 8.59 | CCc1cc(-c2noc(-c3cc(C)nc(N(C)C(C)C)c3)n2)cc(C)c1CCC(=O)NCCC(=O)O [Example 26, 3-[3-(2-Ethyl-4-{5-[2-(isopropyl-methyl-amino)-6-methyl-pyridin-4-yl]-[1,2,4]oxadiazol-3-yl}-6-methyl-phenyl)-propionylamino]-propionic acid] |
| 9.15 | Cc1cc(-c2nc(-c3cc(C)c(OC[C@@H](O)CO)c(C)c3)no2)cc(N(C)C(C)C)n1 [Example 22, (S)-3-(4-{5-[2-(Isopropyl-methyl-amino)-6-methyl-pyridin-4-yl]-[1,2,4]oxadiazol-3-yl}-2,6-dimethyl-phenoxy)-propane-1,2-diol] |
| 9.10 | Cc1cc(-c2nc(-c3cc(C)c(OC[C@@H](O)CNC(=O)CO)c(Cl)c3)no2)cc(N(C)C(C)C)n1 [Example 146, N—[(S)-3-(2-chloro-4-{5-[2-(isopropyl-methyl-amino)-6-methyl-pyridin-4-yl]-[1,2,4]oxadiazol-3-yl}-6-methyl-phenoxy)-2-hydroxy-propyl]-2-hydroxy-acetamide] |
| 8.92 | CCc1cc(-c2nc(-c3cc(C)c(OCC(O)CNC(=O)CO)c(CC)c3)no2)cc(N(C)C)n1 (racemic) [Example 32, rac-N-(3-{4-[5-(2-Dimethylamino-6-ethyl-pyridin-4-yl)-[1,2,4]oxadiazol-3-yl]-2-ethyl-6-methyl-phenoxy}-2-hydroxy-propyl)-2-hydroxy-acetamide] |
| 8.62 | CCc1cc(-c2noc(-c3cc(C)nc(NC(C)C)c3)n2)cc(C)c1OC[C@H](O)CO [Example 198, (R)-3-{2-ethyl-4-[5-(2-isopropylamino-6-methyl-pyridin-4-yl)-[1,2,4]oxadiazol-3-yl]-6-methyl-phenoxy}-propane-1,2-diol] |
| 8.70 | CCCc1cc(-c2noc(-c3cc(C)nc(N(C)C(C)C)c3)n2)cc(C)c1OC[C@@H](O)CNC(=O)CO [Example 139, 2-hydroxy-N—[(S)-2-hydroxy-3-(4-{5-[2-(isopropyl-methyl-amino)-6-methyl-pyridin-4-yl]-[1,2,4]oxadiazol-3-yl}-2-methyl-6-propyl-phenoxy)-propyl]-acetamide] |
| 8.85 | CCc1cc(-c2nc(-c3cc(C)nc(N(CC)CC)c3)no2)cc(C)c1OC[C@H](O)CNC(=O)CO [Example 79, N—((R)-3-{4-[3-(2-diethylamino-6-methyl-pyridin-4-yl)-[1,2,4]oxadiazol-5-yl]-2-ethyl-6-methyl-phenoxy}-2-hydroxy-propyl)-2-hydroxy-acetamide] |
| 9.30 | CCN(CC)c1cc(-c2nc(-c3cc(C)c(OC[C@@H](O)CNC(=O)CO)c(Cl)c3)no2)cc(C)n1 [Example 109, N—((S)-3-{2-chloro-4-[5-(2-diethylamino-6-methyl-pyridin-4-yl)-[1,2,4]oxadiazol-3-yl]-6-methyl-phenoxy}-2-hydroxy-propyl)-2-hydroxy-acetamide] |

Same assay, conditions: agonistic activity; 35S-GTPγS binding, membranes of CHO cells expressing recombinant human S1P1 receptor

| pEC50 | SMILES |
| --- | --- |
| < 5.00 | CCc1cc(-c2nnc(-c3cc(C)nc(N(CC)CC)c3)s2)cc(C)c1OC[C@@H](O)CO [Example 90] |
| < 5.00 | CCc1cc(-c2nnc(-c3cc(C)nc(N(C)C(C)C)c3)s2)cc(C)c1OC[C@@H](O)CN [Example 179] |
| < 5.00 | CCc1cc(-c2noc(-c3cc(C)nc(N(C)CC(C)C)c3)n2)cc(C)c1OCC(O)CO (racemic) [Example 34, rac-3-(2-Ethyl-4-{5-[2-(isobutyl-methyl-amino)-6-methyl-pyridin-4-yl]-[1,2,4]oxadiazol-3-yl}-6-methyl-phenoxy)-propane-1,2-diol] |
| < 5.00 | CCc1cc(-c2nnc(-c3cc(C)nc(N(C)C(C)C)c3)s2)cc(C)c1OC[C@H](O)CN [Example 178] |
| < 5.00 | CCc1cc(-c2noc(-c3cc(C)nc(N4CCOCC4)c3)n2)cc(C)c1OC[C@@H](O)CN [Example 209] |
| < 5.00 | CCc1cc(-c2nnc(-c3cc(C)nc(N(C)C(C)C)c3)s2)cc(C)c1OC[C@H](O)CO [Example 176] |
| < 5.00 | CCc1cc(-c2noc(-c3cc(C)nc(N4CCOCC4)c3)n2)cc(C)c1OC[C@H](O)CN [Example 208] |
